Assay results taken from PubChem BioAssay (NCI).
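A five-concentration, 48-hour dose response in 96-well plates underlies each endpoint, interpolated linearly between surrounding concentrations. At the GI50, growth is halved. Definition used: TGI = concentration required for complete inhibition of growth.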

Columns and labels:
Experiment in all cases: NCI anticancer screen, dose series, 48 h; in the data active = GI50 below about 0.43 µM; inactive = the rest
SW-620 colon = test system: SW-620 colon
SR leukemia = test system: SR leukemia
MOLT-4 leukemia = test system: MOLT-4 leukemia
CAKI-1 renal = test system: CAKI-1 renal
DU-145 prostate = test system: DU-145 prostate
HCT-15 colon = test system: HCT-15 colon
RXF 393 renal = test system: RXF 393 renal
UACC-257 melanoma = test system: UACC-257 melanoma
NCI/ADR-RES ovarian = test system: NCI/ADR-RES ovarian
ACHN renal = test system: ACHN renal
TK-10 renal = test system: TK-10 renal
PC-3 prostate = test system: PC-3 prostate
T-47D breast = test system: T-47D breast
HOP-62 NSCLC = test system: HOP-62 NSCLC
MCF7 breast = test system: MCF7 breast
MALME-3M melanoma = test system: MALME-3M melanoma
A498 renal = test system: A498 renal
OVCAR-5 ovarian = test system: OVCAR-5 ovarian
NCI-H460 lung = test system: NCI-H460 lung
A549 NSCLC = test system: A549 NSCLC
SK-MEL-2 melanoma = test system: SK-MEL-2 melanoma
HS 578T breast = test system: HS 578T breast
HOP-92 NSCLC = test system: HOP-92 NSCLC
CCRF-CEM leukemia = test system: CCRF-CEM leukemia
SK-OV-3 ovarian = test system: SK-OV-3 ovarian
NCI-H522 lung = test system: NCI-H522 lung
HL-60(TB) leukemia = test system: HL-60(TB) leukemia
SNB-75 CNS = test system: SNB-75 CNS
HCT-116 colon = test system: HCT-116 colon
SF-295 CNS = test system: SF-295 CNS
K-562 leukemia = test system: K-562 leukemia
SN12C renal = test system: SN12C renal
HCC-2998 colon = test system: HCC-2998 colon
MDA-MB-435 = test system: MDA-MB-435
KM12 colon = test system: KM12 colon
SF-539 CNS = test system: SF-539 CNS
M14 melanoma = test system: M14 melanoma
OVCAR-8 ovarian = test system: OVCAR-8 ovarian
SK-MEL-28 melanoma = test system: SK-MEL-28 melanoma
NCI-H23 lung = test system: NCI-H23 lung
U251 CNS = test system: U251 CNS
OVCAR-3 ovarian = test system: OVCAR-3 ovarian
HT29 colon = test system: HT29 colon
UACC-62 melanoma = test system: UACC-62 melanoma
UO-31 renal = test system: UO-31 renal
EKVX NSCLC = test system: EKVX NSCLC
SNB-19 CNS = test system: SNB-19 CNS
786-0 renal = test system: 786-0 renal
OVCAR-4 ovarian = test system: OVCAR-4 ovarian
BT-549 breast = test system: BT-549 breast
SF-268 CNS = test system: SF-268 CNS
LOX IMVI melanoma = test system: LOX IMVI melanoma

COC(C(=O)[C@@H](O)[C@@H](C)O)[C@@H]1Cc2cc3cc(O[C@H]4C[C@@H](O[C@H]5C[C@@H](O)[C@H](O)C(C)O5)[C@H](O)C(C)O4)c(C)c(O)c3c(O)c2C(=O)[C@H]1O[C@H]1C[C@@H](O[C@H]2C[C@@H](O[C@H]3C[C@@H](O)[C@@H](O)C(C)O3)[C@@H](O)C(C)O2)[C@H](O)C(C)O1 (some centres undefined)
1620 nM: TGI (NCI-H522 lung)
inactive: GI50 (SW-620 colon) 715 nM | GI50 (MOLT-4 leukemia) 1040 nM | GI50 (CAKI-1 renal) 5780 nM | GI50 (DU-145 prostate) 610 nM | GI50 (HCT-15 colon) 6590 nM | GI50 (NCI/ADR-RES ovarian) > 32500 nM | GI50 (ACHN renal) 485 nM | GI50 (TK-10 renal) 873 nM | GI50 (PC-3 prostate) 914 nM | GI50 (OVCAR-5 ovarian) 485 nM | GI50 (A549 NSCLC) 674 nM | GI50 (CCRF-CEM leukemia) 1840 nM | GI50 (HL-60(TB) leukemia) 6610 nM | GI50 (HCC-2998 colon) 569 nM | GI50 (M14 melanoma) 633 nM | GI50 (OVCAR-8 ovarian) 514 nM | GI50 (UO-31 renal) 605 nM | GI50 (EKVX NSCLC) 780 nM | GI50 (OVCAR-4 ovarian) 571 nM
3700 nM: TGI (SNB-75 CNS)
9050 nM: TGI (NCI-H23 lung)
8760 nM: TGI (OVCAR-3 ovarian)
471 nM: TGI (LOX IMVI melanoma)
2040 nM: TGI (UACC-257 melanoma)
1010 nM: TGI (RXF 393 renal)
11300 nM: TGI (KM12 colon)
2030 nM: TGI (HOP-92 NSCLC)
> 32500 nM: TGI (SW-620 colon) | TGI (SR leukemia) | TGI (MOLT-4 leukemia) | TGI (CAKI-1 renal) | TGI (DU-145 prostate) | TGI (HCT-15 colon) | TGI (NCI/ADR-RES ovarian) | TGI (ACHN renal) | TGI (TK-10 renal) | TGI (PC-3 prostate) | TGI (T-47D breast) | TGI (HOP-62 NSCLC) | TGI (MCF7 breast) | TGI (OVCAR-5 ovarian) | TGI (NCI-H460 lung) | TGI (A549 NSCLC) | TGI (CCRF-CEM leukemia) | TGI (SK-OV-3 ovarian) | TGI (HL-60(TB) leukemia) | TGI (HCT-116 colon) | TGI (SF-295 CNS) | TGI (K-562 leukemia) | TGI (SN12C renal) | TGI (OVCAR-8 ovarian) | TGI (U251 CNS) | TGI (HT29 colon) | TGI (EKVX NSCLC) | TGI (SNB-19 CNS) | TGI (786-0 renal) | TGI (OVCAR-4 ovarian) | TGI (SF-268 CNS)
1930 nM: TGI (SK-MEL-28 melanoma)
1110 nM: TGI (SK-MEL-2 melanoma)
2410 nM: TGI (MALME-3M melanoma)
2820 nM: TGI (SF-539 CNS)
2990 nM: TGI (MDA-MB-435)
active: GI50 (SR leukemia) 112 nM | GI50 (RXF 393 renal) 202 nM | GI50 (UACC-257 melanoma) 295 nM | GI50 (T-47D breast) 106 nM | GI50 (HOP-62 NSCLC) 189 nM | GI50 (MCF7 breast) 41.5 nM | GI50 (MALME-3M melanoma) 114 nM | GI50 (A498 renal) 54.2 nM | GI50 (NCI-H460 lung) 104 nM | GI50 (SK-MEL-2 melanoma) 172 nM | GI50 (HS 578T breast) 126 nM | GI50 (HOP-92 NSCLC) 119 nM | GI50 (SK-OV-3 ovarian) 422 nM | GI50 (NCI-H522 lung) 58 nM | GI50 (SNB-75 CNS) 165 nM | GI50 (HCT-116 colon) 275 nM | GI50 (SF-295 CNS) 196 nM | GI50 (K-562 leukemia) 312 nM | GI50 (SN12C renal) 265 nM | GI50 (MDA-MB-435) 270 nM | GI50 (KM12 colon) 207 nM | GI50 (SF-539 CNS) 147 nM | GI50 (SK-MEL-28 melanoma) 147 nM | GI50 (NCI-H23 lung) 242 nM | GI50 (U251 CNS) 121 nM | GI50 (OVCAR-3 ovarian) 232 nM | GI50 (HT29 colon) 368 nM | GI50 (UACC-62 melanoma) 56.4 nM | GI50 (SNB-19 CNS) 324 nM | GI50 (786-0 renal) 305 nM | GI50 (BT-549 breast) 149 nM | GI50 (SF-268 CNS) 207 nM | GI50 (LOX IMVI melanoma) 63.9 nM
7740 nM: TGI (HCC-2998 colon)
4420 nM: TGI (BT-549 breast)
278 nM: TGI (A498 renal)
4750 nM: TGI (UO-31 renal)
283 nM: TGI (UACC-62 melanoma)
12300 nM: TGI (HS 578T breast)
7610 nM: TGI (M14 melanoma)
